Measured values reported in PMC2833169, “Anti-malarial activity of a non-piperidine library of next-generation quinoline methanols” (Malaria Journal, 2010).
In brackets after ≈: the same amount, converted by molar mass. Where two headings read alike, the source gives them in different places.

Legend:
[1] = system: P. falciparum strain TM90C2A; assay: labeled hypoxanthine susceptibility assay, P. falciparum TM90C2A; assay type: cell-based, Plasmodium falciparum; conditions: for IC90: Plasmodium falciparum, TM90C2A; for CSI (C2A/W2): ratio of IC90 C2A to IC90 W2
Experimental: (§1) The in vitro activities of quinoline methanols against P. falciparum strains W2, D6, TM91C235, and TM90C2A were evaluated using the traditional labeled hypoxanthine assay of Desjardins et al as modified by Milhous et al. These four P. falciparum strains were selected since they have various levels of resistance to conventional anti-malarials.

in vitro = conditions: mouse
Experimental: (§2) General cytotoxicity was assessed by first determining LC50 's against a rodent macrophage (RAW) cell line using the 3-(4,5-dimethylthiazole-2-yl)-2,5-diphenyltetrazolium bromide (MTT) assay as described in one of our earlier studies. This screen was conducted to identify compounds that may require de-selection due to generalized toxicity. […] In vitro neurocytotoxicity was assessed by determining LC50s against primary mouse neurons using the MTT assay as described previously. Inhibition of the A2A and A1 receptors was determined at 200 nM in duplicate by Caliper Biosciences (Hanover, Maryland).

P. falciparum strain W2 = assay: labeled hypoxanthine susceptibility assay, P. falciparum W2; assay type: cell-based, Plasmodium falciparum; conditions: Plasmodium falciparum
Experimental: as §1

[2] = metabolic stability in mouse liver microsomes; assay type: in vitro ADME; conditions: for half-life at 1 μM: pH 7.4, mouse liver microsomes, read-out: Half-life in mouse micro
Experimental: (§3) Interesting compounds were also submitted for drug-drug interaction and metabolic stability assays. Low IC50s against specific cytochrome P450 isoforms may indicate the potential for a harmful drug interaction to occur in vivo with substrates of that isoform. A lack of metabolic stability in vitro may indicate potential metabolic instability in vivo, and, therefore, a shorter half-life. Drug interaction potential was evaluated in vitro using BD Gentest (Franklin Lakes, NJ) CYP450 inhibition kits as recommended by the manufacturer. Metabolic stability assessments were conducted using in vitro liver microsomes. […] The reaction is started with the addition of 1 U/mL glucose-6-phosphate dehydrogenase G6PD. The mixture is incubated on a shaking platform at 37°C, and aliquots are taken and quenched with the addition of an equal volume of cold acetonitrile at 0, 10, 20, 30, and 60 min. Samples are centrifuged at 3700 rpm for […] at 20°C to remove debris. Sample quantification is carried out by LC/MS, and metabolic half-life is calculated by log plots of the total ion chromatograph area remaining.

A1 receptor = target: T1, A1 receptor (Homo sapiens, UniProt P30542); assay: inhibition of the A1 receptor at 200 nM; assay type: binding; conditions: duplicate
T1 construct: Caliper Biosciences (contract screen)
T1 sequence (P30542 1-326): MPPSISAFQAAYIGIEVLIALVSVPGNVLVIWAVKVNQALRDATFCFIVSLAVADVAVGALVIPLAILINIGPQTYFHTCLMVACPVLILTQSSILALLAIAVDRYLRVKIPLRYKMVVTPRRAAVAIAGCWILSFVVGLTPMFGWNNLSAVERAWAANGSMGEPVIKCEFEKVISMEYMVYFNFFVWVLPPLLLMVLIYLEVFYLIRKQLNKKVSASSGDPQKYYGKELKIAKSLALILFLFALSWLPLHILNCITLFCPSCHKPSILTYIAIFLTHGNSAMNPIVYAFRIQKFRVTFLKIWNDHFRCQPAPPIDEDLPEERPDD
Experimental: as §2

CYP450 3A4 = target: T2, CYP450 3A4 (Homo sapiens, UniProt P08684); assay: CYP450 inhibition kit (drug-drug interaction), 3A4; assay type: biochemical
T2 construct: purchased BD Gentest (Franklin Lakes, NJ)
Experimental: as §3, with “Low” for “Interesting compounds were also submitted for drug-drug interaction and metabolic stability assays. Low”

[3] = system: rodent macrophage (RAW) cell line; assay: cells; conditions: Mus musculus, Macrophage, read-out: Macrophage IC50
CYP450 2C19 = target: T3, CYP450 2C19 (Homo sapiens, UniProt P33261); assay: CYP450 inhibition kit (drug-drug interaction), 2C19; assay type: biochemical
T3 construct: purchased BD Gentest (Franklin Lakes, NJ)
Experimental: as §3, with “Low” for “Interesting compounds were also submitted for drug-drug interaction and metabolic stability assays. Low”

A2A receptor = target: T4, A2A receptor (Homo sapiens, UniProt P29274); assay: inhibition of the A2A receptor at 200 nM; assay type: binding; conditions: 200 nM, duplicate; read-out: % A2A inhibition at 200 nM
T4 construct: Caliper Biosciences (contract screen)
Experimental: as §2

P. falciparum strain D6 = assay: labeled hypoxanthine susceptibility assay, P. falciparum D6; assay type: cell-based, Plasmodium falciparum; conditions: for IC90: Plasmodium falciparum
Experimental: as §1

[4] = system: P. falciparum strain TM91C235; assay: labeled hypoxanthine susceptibility assay, P. falciparum TM91C235; assay type: cell-based, Plasmodium falciparum; conditions: Plasmodium falciparum
Experimental: as §1

CYP450 2C9 = target: T5, CYP450 2C9 (Homo sapiens, UniProt P11712); assay: CYP450 inhibition kit (drug-drug interaction), 2C9; assay type: biochemical
T5 construct: purchased BD Gentest (Franklin Lakes, NJ)
Experimental: as §3, with “Low” for “Interesting compounds were also submitted for drug-drug interaction and metabolic stability assays. Low”

CYP450 1A2 = target: T6, CYP450 1A2 (Homo sapiens, UniProt P05177); assay: CYP450 inhibition kit (drug-drug interaction), 1A2; assay type: biochemical
T6 construct: purchased BD Gentest (Franklin Lakes, NJ)
T6 sequence (P05177 1-516): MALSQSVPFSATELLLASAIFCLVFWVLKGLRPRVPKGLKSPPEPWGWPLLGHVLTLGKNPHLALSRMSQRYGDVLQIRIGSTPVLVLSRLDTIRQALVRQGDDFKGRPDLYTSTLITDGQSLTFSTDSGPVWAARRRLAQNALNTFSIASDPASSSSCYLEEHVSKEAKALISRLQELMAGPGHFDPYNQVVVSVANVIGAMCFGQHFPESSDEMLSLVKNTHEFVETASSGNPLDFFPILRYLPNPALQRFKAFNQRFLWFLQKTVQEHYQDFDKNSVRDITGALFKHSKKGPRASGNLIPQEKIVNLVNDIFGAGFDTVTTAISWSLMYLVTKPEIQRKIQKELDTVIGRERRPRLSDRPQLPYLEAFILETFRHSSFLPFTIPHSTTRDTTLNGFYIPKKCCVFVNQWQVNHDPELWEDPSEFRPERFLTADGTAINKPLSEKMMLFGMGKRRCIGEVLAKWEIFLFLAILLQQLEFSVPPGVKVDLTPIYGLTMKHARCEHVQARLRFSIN
Experimental: as §3, with “Low” for “Interesting compounds were also submitted for drug-drug interaction and metabolic stability assays. Low”

[5] = read-out: Pf C2A IC90 nM values calculated using MW in Column C
[6] = D6, read-out: IC90 Pf D6, P. falciparum D6, mefloquine: historical mean +/- SD (n)
[7] = D6, read-out: PF D6 IC90, P. falciparum D6

T2 sequence (P08684 whole entry): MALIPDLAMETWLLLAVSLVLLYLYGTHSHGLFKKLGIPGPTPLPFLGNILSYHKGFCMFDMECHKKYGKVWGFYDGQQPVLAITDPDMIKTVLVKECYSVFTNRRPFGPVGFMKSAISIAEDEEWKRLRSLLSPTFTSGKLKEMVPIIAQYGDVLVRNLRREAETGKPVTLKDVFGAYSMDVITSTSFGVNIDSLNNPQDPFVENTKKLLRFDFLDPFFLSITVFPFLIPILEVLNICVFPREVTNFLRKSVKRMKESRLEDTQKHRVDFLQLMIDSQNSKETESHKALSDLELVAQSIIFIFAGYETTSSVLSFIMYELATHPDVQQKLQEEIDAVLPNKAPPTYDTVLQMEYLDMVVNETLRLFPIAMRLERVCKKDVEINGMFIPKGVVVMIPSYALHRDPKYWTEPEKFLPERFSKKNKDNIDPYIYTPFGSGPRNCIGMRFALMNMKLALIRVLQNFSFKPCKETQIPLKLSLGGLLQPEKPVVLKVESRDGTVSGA
T4 sequence (P29274 whole entry): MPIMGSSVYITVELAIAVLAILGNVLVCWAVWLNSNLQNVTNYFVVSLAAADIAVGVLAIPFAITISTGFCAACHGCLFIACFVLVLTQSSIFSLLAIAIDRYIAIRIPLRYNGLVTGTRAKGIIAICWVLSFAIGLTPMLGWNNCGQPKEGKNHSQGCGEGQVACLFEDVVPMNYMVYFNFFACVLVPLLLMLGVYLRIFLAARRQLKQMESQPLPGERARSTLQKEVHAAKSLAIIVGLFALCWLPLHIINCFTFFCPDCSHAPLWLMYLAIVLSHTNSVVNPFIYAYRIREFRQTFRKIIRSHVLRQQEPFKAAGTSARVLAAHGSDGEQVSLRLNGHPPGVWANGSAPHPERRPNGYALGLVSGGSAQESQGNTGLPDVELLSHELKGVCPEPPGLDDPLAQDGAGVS
T5 sequence (P11712 whole entry): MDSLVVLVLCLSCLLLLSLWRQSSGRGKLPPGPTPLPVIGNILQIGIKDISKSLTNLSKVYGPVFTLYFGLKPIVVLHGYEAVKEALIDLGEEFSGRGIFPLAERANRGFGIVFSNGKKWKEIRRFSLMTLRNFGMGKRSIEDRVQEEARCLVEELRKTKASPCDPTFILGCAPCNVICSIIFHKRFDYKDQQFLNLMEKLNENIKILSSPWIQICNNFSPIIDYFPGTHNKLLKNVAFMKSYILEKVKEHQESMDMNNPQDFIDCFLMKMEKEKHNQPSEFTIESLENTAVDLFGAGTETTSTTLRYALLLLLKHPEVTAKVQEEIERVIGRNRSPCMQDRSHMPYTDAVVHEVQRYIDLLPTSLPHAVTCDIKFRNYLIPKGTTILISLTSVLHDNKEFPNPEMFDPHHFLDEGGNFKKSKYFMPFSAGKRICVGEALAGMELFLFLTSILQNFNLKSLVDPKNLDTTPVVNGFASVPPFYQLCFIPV
T3 sequence (P33261 whole entry): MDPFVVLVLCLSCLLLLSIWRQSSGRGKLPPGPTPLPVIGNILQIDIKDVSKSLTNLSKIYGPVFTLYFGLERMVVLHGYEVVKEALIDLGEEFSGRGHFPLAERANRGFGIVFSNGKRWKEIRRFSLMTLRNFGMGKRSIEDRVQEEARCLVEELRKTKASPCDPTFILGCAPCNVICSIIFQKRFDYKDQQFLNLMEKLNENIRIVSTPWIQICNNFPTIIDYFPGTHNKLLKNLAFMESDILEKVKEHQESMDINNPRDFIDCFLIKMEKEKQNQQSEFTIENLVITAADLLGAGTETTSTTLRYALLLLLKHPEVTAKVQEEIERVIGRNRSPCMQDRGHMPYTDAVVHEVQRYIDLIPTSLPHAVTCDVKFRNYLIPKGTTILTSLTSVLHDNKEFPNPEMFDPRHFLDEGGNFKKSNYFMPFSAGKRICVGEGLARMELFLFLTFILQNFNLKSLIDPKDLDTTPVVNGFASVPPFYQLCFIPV

SMILES | IC90 ([1]; read-out: IC90 Pf C2A) [µg/mL] | IC90 ([1]; read-out: IC90 PfC2A) [nM] | IC90 ([1]; read-out: PF C2A IC90) [µg/mL] | IC90 [1, 5] [nM] | CSI (C2A/W2) [1] | CC50 (in vitro) [µM] | IC90 (P. falciparum strain W2; W2, read-out: IC90 Pf W2) [ng/mL] | IC90 (P. falciparum strain W2; W2, read-out: PF W2 IC90) [ng/mL] | half-life at 1 μM [2] [min] | inhibition at 0.2 µM (A1 receptor) [%] | IC50 (CYP450 3A4) [µM] | IC50 [3] [µM] | IC50 (CYP450 2C19) [µM] | inhibition at 0.2 µM (A2A receptor) [%] | IC90 (P. falciparum strain D6; [6]) [µg/mL] | IC90 (P. falciparum strain D6; [7]) [µg/mL] | IC90 ([4]; read-out: IC90 Pf C235) [µg/mL] | IC90 ([4]; read-out: PF C235 IC90) [µg/mL] | IC50 (CYP450 2C9) [µM] | IC50 (CYP450 1A2) [µM] | further results
CNCC(O)c1cc(C(F)(F)F)nc2c(C(F)(F)F)cccc12 (stereo not drawn) [WR308245] | 0.08 | 236 | 0.0798 | 236 | 4.8 | > 120 | 17 (≈ 0.0503 µM) | 16.8 (≈ 0.0495 µM) | > 60 | 0 | 26 | 40.4 | 33 | 0 | 0.045 (≈ 0.133 µM) | 0.0452 (≈ 0.134 µM) | 0.058 (≈ 0.171 µM) | 0.0576 (≈ 0.17 µM) | > 40 | 1.8 | 
CC(C)NCC(O)c1cc(C(F)(F)F)nc2c(C(F)(F)F)cccc12 (stereo not drawn) [WR308257] | 0.039 | 107 | 0.0392 | 107 | 8.4 | > 120 | 4.7 (≈ 0.0128 µM) | 4.65 (≈ 0.0127 µM) | > 60 | 79 | > 40 | 14.2 | 26 | 17 | 0.023 (≈ 0.0628 µM) | 0.0232 (≈ 0.0634 µM) | 0.023 (≈ 0.0628 µM) | 0.0234 (≈ 0.0638 µM) | 37 | 3.9 | 
OC(CNCCNCc1ccccc1)c1cc(C(F)(F)F)nc2c(C(F)(F)F)cccc12 (stereo not drawn) [WR308396] | 0.048 | 105 | 0.048 | 105 | 7.7 | 52 | 6.2 (≈ 0.0136 µM) |  | > 60 | 2.9 | 3.3 | 18.1 | 5.8 | 0 | 0.03 (≈ 0.0656 µM) | 0.0293 (≈ 0.0639 µM) | 0.04 (≈ 0.0874 µM) | 0.0401 (≈ 0.0877 µM) | 14 | 5.4 | HL in Microsomes ([2]; Figure 3, species of microsomes not given): > 60 min; IC90 Pf D6 (P. falciparum strain D6; P. falciparum D6, mefloquine: historical mean +/- SD (n)): 29 ng/mL (≈ 0.0634 µM)
CSCCCNCC(O)c1cc(C(F)(F)F)nc2c(C(F)(F)F)cccc12 (stereo not drawn) [WR308278] | 0.054 | 132 | 0.0544 | 132 | 5.6 | > 120 | 9.7 (≈ 0.0235 µM) | 9.69 (≈ 0.0235 µM) | 10 | 9.4 | 16 | 20.9 | 3.6 | 1 | 0.036 (≈ 0.0873 µM) | 0.0363 (≈ 0.0881 µM) | 0.039 (≈ 0.0946 µM) | 0.0393 (≈ 0.0953 µM) | 6.3 | 3.5 | 
